Laboratory results: ChEMBL document CHEMBL3991601, “The target landscape of clinical kinase drugs” (Science, 2017)
Active and inactive are the calls of the source. Rule as the data show it, for most assays here: actives have a measured Kd and inactives only a lower limit.

Legend:
[1] = target: Cyclin-dependent kinase 6 (Homo sapiens, UniProt Q00534)
[2] = target: Eukaryotic translation initiation factor 2-alpha kinase 1 (Homo sapiens, UniProt Q9BQI3)
[3] = target: Mitogen-activated protein kinase kinase kinase kinase 4 (Homo sapiens, UniProt O95819)
Sequence of Mitogen-activated protein kinase kinase kinase kinase 4 (O95819 whole entry): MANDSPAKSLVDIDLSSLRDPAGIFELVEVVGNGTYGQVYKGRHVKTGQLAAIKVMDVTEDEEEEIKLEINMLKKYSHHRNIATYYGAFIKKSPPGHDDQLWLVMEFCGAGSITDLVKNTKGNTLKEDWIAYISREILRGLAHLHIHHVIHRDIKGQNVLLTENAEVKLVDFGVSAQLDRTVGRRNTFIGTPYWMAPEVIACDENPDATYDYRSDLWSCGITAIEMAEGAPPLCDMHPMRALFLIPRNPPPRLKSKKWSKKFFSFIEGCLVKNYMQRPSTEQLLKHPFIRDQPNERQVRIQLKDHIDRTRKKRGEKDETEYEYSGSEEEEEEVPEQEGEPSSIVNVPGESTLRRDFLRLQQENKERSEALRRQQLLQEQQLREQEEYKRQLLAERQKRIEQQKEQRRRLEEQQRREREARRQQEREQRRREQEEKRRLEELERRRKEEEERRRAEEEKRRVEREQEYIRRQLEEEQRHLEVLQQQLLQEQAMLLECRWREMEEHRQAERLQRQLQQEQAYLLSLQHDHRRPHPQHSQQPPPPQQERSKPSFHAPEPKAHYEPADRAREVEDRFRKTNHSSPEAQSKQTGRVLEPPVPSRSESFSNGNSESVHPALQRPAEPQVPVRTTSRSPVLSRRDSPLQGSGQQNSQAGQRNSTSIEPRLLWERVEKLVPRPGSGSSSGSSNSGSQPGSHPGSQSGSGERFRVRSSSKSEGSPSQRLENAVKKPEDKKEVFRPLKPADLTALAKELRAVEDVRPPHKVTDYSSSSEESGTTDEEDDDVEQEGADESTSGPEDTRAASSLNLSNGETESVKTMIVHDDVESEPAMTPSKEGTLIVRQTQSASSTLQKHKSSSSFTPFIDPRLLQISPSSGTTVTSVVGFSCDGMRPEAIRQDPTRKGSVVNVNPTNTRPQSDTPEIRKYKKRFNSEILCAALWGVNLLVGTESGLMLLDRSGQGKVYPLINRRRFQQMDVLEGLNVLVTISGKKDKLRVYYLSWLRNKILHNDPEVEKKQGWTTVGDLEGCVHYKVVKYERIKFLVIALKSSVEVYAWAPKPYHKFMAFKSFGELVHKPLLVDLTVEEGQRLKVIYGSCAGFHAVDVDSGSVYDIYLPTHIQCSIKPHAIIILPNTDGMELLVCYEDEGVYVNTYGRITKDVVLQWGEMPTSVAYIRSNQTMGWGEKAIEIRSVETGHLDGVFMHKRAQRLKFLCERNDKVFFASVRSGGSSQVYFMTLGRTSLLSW

[4] = target: Mitogen-activated protein kinase kinase kinase kinase 5 (Homo sapiens, UniProt Q9Y4K4)
Sequence of Mitogen-activated protein kinase kinase kinase kinase 5 (Q9Y4K4 whole entry): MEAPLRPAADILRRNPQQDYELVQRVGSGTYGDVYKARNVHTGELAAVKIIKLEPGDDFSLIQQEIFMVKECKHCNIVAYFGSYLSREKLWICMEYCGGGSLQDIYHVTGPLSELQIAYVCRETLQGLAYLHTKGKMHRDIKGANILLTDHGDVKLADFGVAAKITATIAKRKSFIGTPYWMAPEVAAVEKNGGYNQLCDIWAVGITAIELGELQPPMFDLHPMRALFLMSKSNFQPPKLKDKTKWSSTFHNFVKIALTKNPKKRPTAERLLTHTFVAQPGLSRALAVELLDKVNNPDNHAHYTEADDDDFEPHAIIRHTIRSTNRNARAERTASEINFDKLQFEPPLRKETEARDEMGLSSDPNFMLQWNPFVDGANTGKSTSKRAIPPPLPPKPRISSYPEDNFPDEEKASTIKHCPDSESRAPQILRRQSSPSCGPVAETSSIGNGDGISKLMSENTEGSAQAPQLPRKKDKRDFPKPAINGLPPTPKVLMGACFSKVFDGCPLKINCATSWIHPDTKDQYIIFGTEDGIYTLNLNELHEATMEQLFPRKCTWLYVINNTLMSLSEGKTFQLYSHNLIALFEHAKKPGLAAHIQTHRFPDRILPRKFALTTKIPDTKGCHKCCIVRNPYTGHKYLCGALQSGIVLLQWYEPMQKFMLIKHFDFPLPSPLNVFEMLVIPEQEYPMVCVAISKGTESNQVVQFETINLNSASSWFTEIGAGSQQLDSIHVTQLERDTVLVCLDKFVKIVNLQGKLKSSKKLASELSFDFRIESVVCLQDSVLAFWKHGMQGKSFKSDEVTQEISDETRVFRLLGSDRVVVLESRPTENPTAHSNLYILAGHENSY

[5] = target: T1, Serine/threonine-protein kinase Chk1 (Homo sapiens, UniProt O14757)
T1 sequence (O14757 whole entry): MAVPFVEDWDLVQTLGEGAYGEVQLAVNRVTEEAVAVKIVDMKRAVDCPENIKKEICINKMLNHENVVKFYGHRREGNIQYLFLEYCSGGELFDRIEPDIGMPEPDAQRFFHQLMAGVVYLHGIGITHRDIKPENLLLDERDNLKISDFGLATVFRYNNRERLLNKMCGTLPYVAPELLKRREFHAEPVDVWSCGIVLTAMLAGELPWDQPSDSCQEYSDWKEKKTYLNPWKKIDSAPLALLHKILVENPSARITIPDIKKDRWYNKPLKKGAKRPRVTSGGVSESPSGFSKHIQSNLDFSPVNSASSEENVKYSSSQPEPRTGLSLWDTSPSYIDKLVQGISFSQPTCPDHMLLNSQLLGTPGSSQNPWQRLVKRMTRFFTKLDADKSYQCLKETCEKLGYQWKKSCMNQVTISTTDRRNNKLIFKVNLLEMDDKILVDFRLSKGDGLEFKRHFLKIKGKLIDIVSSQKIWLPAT

[6] = target: T2, ATP-dependent RNA helicase DDX42 (Homo sapiens, UniProt Q86XP3)
T2 sequence (Q86XP3 whole entry): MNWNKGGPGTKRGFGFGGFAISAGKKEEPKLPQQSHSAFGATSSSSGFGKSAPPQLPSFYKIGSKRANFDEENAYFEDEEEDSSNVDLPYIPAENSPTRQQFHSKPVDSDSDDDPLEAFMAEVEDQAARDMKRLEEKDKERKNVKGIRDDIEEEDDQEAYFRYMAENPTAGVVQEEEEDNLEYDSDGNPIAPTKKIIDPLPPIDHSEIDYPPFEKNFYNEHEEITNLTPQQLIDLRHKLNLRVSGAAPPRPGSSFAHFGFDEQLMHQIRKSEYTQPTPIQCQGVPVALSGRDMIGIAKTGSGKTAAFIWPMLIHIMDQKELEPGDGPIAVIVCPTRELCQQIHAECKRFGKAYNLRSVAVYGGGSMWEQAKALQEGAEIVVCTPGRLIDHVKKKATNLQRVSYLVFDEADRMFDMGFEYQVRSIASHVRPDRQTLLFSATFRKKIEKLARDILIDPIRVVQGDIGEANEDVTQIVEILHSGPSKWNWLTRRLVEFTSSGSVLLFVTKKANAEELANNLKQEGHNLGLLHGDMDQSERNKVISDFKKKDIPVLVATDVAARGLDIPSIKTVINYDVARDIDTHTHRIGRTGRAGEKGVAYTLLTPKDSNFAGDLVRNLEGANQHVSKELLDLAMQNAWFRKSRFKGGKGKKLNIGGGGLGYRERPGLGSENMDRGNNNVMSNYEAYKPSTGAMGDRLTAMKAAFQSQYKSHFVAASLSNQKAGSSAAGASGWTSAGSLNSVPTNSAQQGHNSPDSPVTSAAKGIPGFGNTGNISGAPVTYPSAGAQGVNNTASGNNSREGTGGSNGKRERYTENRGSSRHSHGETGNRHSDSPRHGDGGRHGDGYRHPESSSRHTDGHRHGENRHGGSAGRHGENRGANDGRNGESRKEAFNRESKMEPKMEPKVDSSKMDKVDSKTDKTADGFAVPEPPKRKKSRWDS

Ephrin type-B receptor 6 = target: T3, Ephrin type-B receptor 6 (Homo sapiens, UniProt O15197)
T3 sequence (O15197 whole entry): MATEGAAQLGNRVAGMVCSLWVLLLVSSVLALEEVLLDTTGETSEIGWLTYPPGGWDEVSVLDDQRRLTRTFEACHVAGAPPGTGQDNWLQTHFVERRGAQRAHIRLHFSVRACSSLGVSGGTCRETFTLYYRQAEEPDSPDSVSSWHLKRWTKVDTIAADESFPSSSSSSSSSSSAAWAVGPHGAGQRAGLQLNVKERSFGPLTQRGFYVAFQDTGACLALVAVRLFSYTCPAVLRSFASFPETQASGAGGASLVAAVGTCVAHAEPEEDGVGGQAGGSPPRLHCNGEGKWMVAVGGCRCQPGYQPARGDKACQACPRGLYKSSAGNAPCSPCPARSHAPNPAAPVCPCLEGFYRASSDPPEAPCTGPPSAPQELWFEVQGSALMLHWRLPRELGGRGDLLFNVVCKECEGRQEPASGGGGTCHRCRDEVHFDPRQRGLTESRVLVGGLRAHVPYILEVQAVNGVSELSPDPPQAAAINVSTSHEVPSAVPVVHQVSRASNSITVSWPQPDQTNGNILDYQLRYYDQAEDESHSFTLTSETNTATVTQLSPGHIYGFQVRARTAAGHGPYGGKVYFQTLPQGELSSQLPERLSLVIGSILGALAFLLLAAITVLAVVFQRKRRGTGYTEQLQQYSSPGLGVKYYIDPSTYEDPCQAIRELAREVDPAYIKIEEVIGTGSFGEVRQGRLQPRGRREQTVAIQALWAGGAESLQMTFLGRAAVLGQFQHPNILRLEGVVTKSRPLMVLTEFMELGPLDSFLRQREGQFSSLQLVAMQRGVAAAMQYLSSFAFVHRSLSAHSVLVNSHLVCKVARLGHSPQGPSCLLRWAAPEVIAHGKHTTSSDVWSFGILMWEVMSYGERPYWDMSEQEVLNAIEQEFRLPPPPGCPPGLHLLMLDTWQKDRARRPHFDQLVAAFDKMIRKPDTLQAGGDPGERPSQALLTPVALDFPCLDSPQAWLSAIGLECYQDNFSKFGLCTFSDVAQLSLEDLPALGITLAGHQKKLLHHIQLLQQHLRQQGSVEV
Also: in the data inactive means no Kd found up to 30 µM.

Sequence of Eukaryotic translation initiation factor 2-alpha kinase 1 (Q9BQI3 whole entry): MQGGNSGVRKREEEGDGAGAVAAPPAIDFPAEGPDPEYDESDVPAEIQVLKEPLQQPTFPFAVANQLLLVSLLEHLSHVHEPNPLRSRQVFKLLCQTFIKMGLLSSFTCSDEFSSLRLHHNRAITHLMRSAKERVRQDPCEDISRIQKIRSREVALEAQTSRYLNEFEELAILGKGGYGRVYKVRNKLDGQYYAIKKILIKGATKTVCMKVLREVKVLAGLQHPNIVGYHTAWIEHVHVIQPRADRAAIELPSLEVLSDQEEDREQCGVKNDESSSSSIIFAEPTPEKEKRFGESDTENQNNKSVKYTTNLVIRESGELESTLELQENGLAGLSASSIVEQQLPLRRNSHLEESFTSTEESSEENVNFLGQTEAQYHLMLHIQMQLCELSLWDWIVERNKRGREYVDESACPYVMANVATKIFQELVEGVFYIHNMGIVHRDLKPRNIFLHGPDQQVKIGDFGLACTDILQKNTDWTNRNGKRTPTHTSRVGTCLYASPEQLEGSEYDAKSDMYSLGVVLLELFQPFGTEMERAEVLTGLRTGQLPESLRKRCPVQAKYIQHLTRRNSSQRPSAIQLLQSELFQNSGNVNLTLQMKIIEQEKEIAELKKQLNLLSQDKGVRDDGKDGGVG
Sequence of Cyclin-dependent kinase 6 (Q00534 whole entry): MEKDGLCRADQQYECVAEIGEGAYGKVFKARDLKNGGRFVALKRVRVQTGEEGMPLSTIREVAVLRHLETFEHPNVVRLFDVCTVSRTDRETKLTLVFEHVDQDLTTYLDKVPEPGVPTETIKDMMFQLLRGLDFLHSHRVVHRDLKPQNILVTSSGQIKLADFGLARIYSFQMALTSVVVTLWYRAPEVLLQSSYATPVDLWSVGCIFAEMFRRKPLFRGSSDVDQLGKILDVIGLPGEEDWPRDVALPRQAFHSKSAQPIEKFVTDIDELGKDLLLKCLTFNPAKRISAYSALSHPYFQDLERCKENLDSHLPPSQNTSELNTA

| SMILES | Kd [1] | Kd [2] | Kd [3] | Kd [4] | Kd [5] | Kd [6] | Kd (Ephrin type-B receptor 6) |
| --- | --- | --- | --- | --- | --- | --- | --- |
| Cn1c(=O)c(F)c(Nc2ccc(I)cc2F)c2c(=O)n(C[C@@H](O)CO)cnc21 [TAK-733] | > 30 µM (inactive) | > 30 µM (inactive) | > 30 µM (inactive) | > 30 µM (inactive) | > 30 µM (inactive) | > 30 µM (inactive) | – |
| COc1cc2ncnc3c2cc1OCCCCCN(C)Cc1ccc(Br)cc1N3 [JNJ-26483327] | > 30 µM (inactive) | > 30 µM (inactive) | > 30 µM (inactive) | > 30 µM (inactive) | > 30 µM (inactive) | > 30 µM (inactive) | > 30 µM (inactive) |
| COc1cc2ncnc(Nc3ccc(F)c(Cl)c3)c2cc1NC(=O)/C=C/CN1CCCCC1 [DACOMITINIB ANHYDROUS] | > 30 µM (inactive) | > 30 µM (inactive) | > 30 µM (inactive) | > 30 µM (inactive) | > 30 µM (inactive) | > 30 µM (inactive) | > 30 µM (inactive) |
| C#Cc1cccc(Nc2ncnc3cc4c(cc23)OCCOCCOCCO4)c1 [ICOTINIB] | > 30 µM (inactive) | > 30 µM (inactive) | > 30 µM (inactive) | > 30 µM (inactive) | > 30 µM (inactive) | > 30 µM (inactive) | > 30 µM (inactive) |
| COc1cc2ncnc(Nc3ccc(O)cc3)c2cc1OC [WHI-P131] | > 30 µM (inactive) | > 30 µM (inactive) | > 30 µM (inactive) | > 30 µM (inactive) | > 30 µM (inactive) | > 30 µM (inactive) | > 30 µM (inactive) |
| S=C(NCc1ccc2c(c1)OCO2)N1CCN(c2ncnc3c2oc2ccccc23)CC1 [AMUVATINIB] | > 30 µM (inactive) | > 30 µM (inactive) | > 30 µM (inactive) | > 30 µM (inactive) | > 30 µM (inactive) | > 30 µM (inactive) | > 30 µM (inactive) |
| CC1(COc2ccc3c(c2)ncn3-c2ccc3cccc(N4CCC(N)CC4)c3n2)COC1 [CRENOLANIB] | > 30 µM (inactive) | > 30 µM (inactive) | 0.282 µM (active) | 0.455 µM (active) | > 30 µM (inactive) | > 30 µM (inactive) | > 30 µM (inactive) |
| CNC(=O)c1ccc(Nc2ncc(C(F)(F)F)c(NCc3nccnc3N(C)S(C)(=O)=O)n2)cc1 [DEFACTINIB] | – | > 30 µM (inactive) | > 30 µM (inactive) | > 30 µM (inactive) | > 30 µM (inactive) | > 30 µM (inactive) | > 30 µM (inactive) |
| Cn1cc(-c2[nH]c3cc(NC(=O)[C@H](N)C4CCCCC4)cc4c3c2C=NNC4=O)cn1 | > 30 µM (inactive) | > 30 µM (inactive) | > 30 µM (inactive) | 2.64 µM (active) | – | > 30 µM (inactive) | 1.53 µM |
| CCN1CCN(Cc2ccc(Nc3ncc(F)c(-c4cc(F)c5nc(C)n(C(C)C)c5c4)n3)nc2)CC1 [ABEMACICLIB] | – | 4.84 µM (active) | 1.32 µM (active) | > 30 µM (inactive) | > 30 µM (inactive) | > 30 µM (inactive) | > 30 µM (inactive) |
| Cc1cc(-c2cc(OC(=O)c3ccccc3)ccc2Cl)cc2nnc(Nc3ccc(OCCN4CCCC4)cc3)nc12 [TG100-801] | > 30 µM (inactive) | > 30 µM (inactive) | > 30 µM (inactive) | > 30 µM (inactive) | > 30 µM (inactive) | – | > 30 µM (inactive) |
| O=C(Nc1ccc(OC(F)(F)F)cc1)c1sccc1NCc1ccnc2ccccc12 [OSI-930] | > 30 µM (inactive) | > 30 µM (inactive) | > 30 µM (inactive) | > 30 µM (inactive) | > 30 µM (inactive) | – | > 30 µM (inactive) |
| C=CCN(/C=C1/C(=O)O[C@H](COC)[C@@]2(C)C1=C(O)C(=O)C1=C2[C@H](OC(C)=O)C[C@]2(C)C(=O)CC[C@@H]12)CC=C [SONOLISIB] | > 30 µM (inactive) | > 30 µM (inactive) | > 30 µM (inactive) | > 30 µM (inactive) | > 30 µM (inactive) | – | > 30 µM (inactive) |
